Source: the supplement of paper PMC10307832

Assays:
Test in all cases: relative viability (nuclei count vs DMSO), 5 days (fraction); higher = more cells survive
[1] = compound: O=C(C[C@H]1NCCC[C@@H]1O)Cn1cnc2cc(Br)c(Cl)cc2c1=O (racemic) [Halofuginone] + O=C(CCCCCCC(=O)Nc1ccccc1)NO [Vorinostat] (partner 1 µM)
Summary of the method: (§1)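 For relative viability, nuclei counts in treated wells were divided by those in vehicle wells. Lung cancer cell lines had been pin-tool dosed in 1536-well plates the day after seeding and cultured for 5 days, then fixed and stained in one step (final 0.05% Triton X-100, 1% formaldehyde, 1 ug/ml Hoechst) and imaged at 4×. Doses were one drug alone or a fixed anchor-drug dose plus five library-drug doses (not always all listed) in √10 steps, and values are duplicate-plate medians.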

Halofuginone + OSI-027 = compound: O=C(C[C@H]1NCCC[C@@H]1O)Cn1cnc2cc(Br)c(Cl)cc2c1=O (racemic) [Halofuginone] + COc1cccc2cc(-c3nc([C@H]4CC[C@H](C(=O)O)CC4)n4ncnc(N)c34)[nH]c12 [OSI-027] (partner 0.5 µM)
Summary of the method: as §1

Decitabine + Linsitinib = compound: Nc1ncn([C@H]2C[C@H](O)[C@@H](CO)O2)c(=O)n1 [Decitabine] + C[C@]1(O)C[C@@H](c2nc(-c3ccc4ccc(-c5ccccc5)nc4c3)c3c(N)nccn32)C1 [Linsitinib] (partner 1 µM)
Summary of the method: as §1

Cediranib + Trametinib = compound: COc1cc2c(Oc3ccc4[nH]c(C)cc4c3F)ncnc2cc1OCCCN1CCCC1 [Cediranib] + CC(=O)Nc1cccc(-n2c(=O)n(C3CC3)c(=O)c3c(Nc4ccc(I)cc4F)n(C)c(=O)c(C)c32)c1 [Trametinib] (partner 0.02 µM)
Summary of the method: as §1

| Cell Line | relative viability ([1]; first compound 0.001 µM) | relative viability ([1]; first compound 0.003162 µM) | relative viability ([1]; first compound 0.01 µM) | relative viability ([1]; first compound 0.03162 µM) | relative viability ([1]; first compound 0.1 µM) | relative viability (Halofuginone + OSI-027; first compound 0.001 µM) | relative viability (Halofuginone + OSI-027; first compound 0.003162 µM) | relative viability (Halofuginone + OSI-027; first compound 0.01 µM) | relative viability (Halofuginone + OSI-027; first compound 0.03162 µM) | relative viability (Halofuginone + OSI-027; first compound 0.1 µM) | relative viability (Decitabine + Linsitinib; first compound 0.04 µM) | relative viability (Decitabine + Linsitinib; first compound 0.1265 µM) | relative viability (Decitabine + Linsitinib; first compound 0.4 µM) | relative viability (Decitabine + Linsitinib; first compound 1.265 µM) | relative viability (Decitabine + Linsitinib; first compound 4 µM) | relative viability (Cediranib + Trametinib; first compound 0.04 µM) | relative viability (Cediranib + Trametinib; first compound 0.1265 µM) | relative viability (Cediranib + Trametinib; first compound 0.4 µM) | relative viability (Cediranib + Trametinib; first compound 1.265 µM) | relative viability (Cediranib + Trametinib; first compound 4 µM) |
| --- | --- | --- | --- | --- | --- | --- | --- | --- | --- | --- | --- | --- | --- | --- | --- | --- | --- | --- | --- | --- |
| NCI-H650 | 0.792 | 0.537 | 0.5 | 0.376 | 0.355 | 0.531 | 0.59 | 0.506 | 0.492 | 0.533 | 0.722 | 0.538 | 0.298 | 0.258 | 0.32 | 0.96 | 0.85 | 1.06 | 1.09 | 1.03 |
| BEN | 0.55 | 0.541 | 0.55 | 0.587 | 0.572 | 0.341 | 0.287 | 0.299 | 0.288 | 0.247 | 0.994 | 0.809 | 0.671 | 0.46 | 0.43 | 1.12 | 0.936 | 1.02 | 1.02 | 0.986 |
| NCI-H23 | 0.664 | 0.521 | 0.559 | 0.553 | 0.534 | 0.755 | 0.554 | 0.545 | 0.441 | 0.344 | 0.571 | 0.381 | 0.252 | 0.215 | 0.229 | 0.483 | 0.426 | 0.419 | 0.325 | 0.424 |
| NCI-H1975 | 0.744 | 0.697 | 0.441 | 0.47 | 0.179 | 0.751 | 0.744 | 0.67 | 0.473 | 0.348 | 0.706 | 0.525 | 0.346 | 0.326 | 0.369 | 0.377 | 0.388 | 0.338 | 0.373 | 0.337 |
| COR-L 105 | 1.04 | 0.872 | 0.896 | 0.774 | 0.719 | 0.667 | 0.637 | 0.603 | 0.656 | 0.466 | 1.02 | 0.768 | 0.738 | 0.506 | 0.486 | 0.438 | 0.478 | 0.415 | 0.384 | 0.43 |
| LK-2 | 0.331 | 0.292 | 0.292 | 0.353 | 0.254 | 0.24 | 0.237 | 0.201 | 0.221 | 0.167 | 0.462 | 0.637 | 0.509 | 0.502 | 0.387 | 0.889 | 0.573 | 0.668 | 0.742 | 0.643 |
| EKVX | 0.787 | 0.729 | 0.729 | 0.693 | 0.572 | 0.656 | 0.789 | 0.773 | 0.499 | 0.539 | 0.792 | 0.854 | 0.657 | 0.386 | 0.306 | 0.283 | 0.4 | 0.343 |  | 0.402 |
| NCI-H2009 | 0.86 | 0.703 | 0.76 | 0.703 | 0.462 | 0.835 | 0.795 | 0.655 | 0.468 | 0.264 | 1.08 | 0.801 | 0.601 | 0.383 | 0.33 | 0.288 | 0.335 | 0.237 | 0.213 | 0.276 |
| NCI-H838 | 0.752 | 0.746 | 0.703 | 0.507 | 0.16 | 0.39 | 0.414 | 0.413 | 0.339 | 0.16 | 0.798 | 0.561 | 0.333 | 0.318 | 0.264 | 0.508 | 0.494 | 0.491 | 0.514 | 0.705 |
| NCI-H2085 | 0.817 | 0.805 | 0.759 | 0.815 | 0.748 | 0.886 | 0.832 | 0.755 | 0.721 | 0.523 | 0.744 | 0.615 | 0.508 | 0.392 | 0.372 | 0.571 | 0.523 | 0.475 | 0.49 | 0.526 |
